Results reported in ChEMBL document CHEMBL1153646, “Peptidomimetic inhibitors of p21ras farnesyltransferase: Hydrophobic functionalization leads to disruption of p21ras membrane association in whole cells” (Bioorg Med Chem Lett, 1994).
The source made the active and inactive calls. The rule behind the calls is not given here.

Legend:
[1] = biological target: Protein farnesyltransferase (Homo sapiens, UniProt P49354+P49356); assay: In vitro inhibition of [3H]FPP incorporation into recombinant P21ras of NIH3T3 cells by farnesyl transferase; type: cell-based
[2] = biological target: Protein farnesyltransferase (Mus musculus) (UniProt Q61239+Q8K2I1); assay: In vivo inhibition of p21ras-farnesyl transferase in NIH3T3 cells (No inhibition); type: functional

Structure (SMILES)	IC50 [1] [µM]	inhibition [2]
CSCC[C@H](NC(=O)c1cccc(CNC(=O)[C@@H](N)CS)c1)C(=O)O	0.38	inactive
CSCC[C@H](NC(=O)c1cccc(CNC(=O)[C@H](CS)NC(=O)OCc2ccccc2)c1)C(=O)O	14	inactive
COC(=O)[C@H](CCSC)NC(=O)c1cccc(CNC(=O)[C@H](CSC(=O)OCc2ccccc2)NC(=O)OCc2ccccc2)c1	100	–
COC(=O)[C@H](CCSC)NC(=O)c1cccc(CNC(=O)[C@@H](N)CS)c1	18	–
CC[C@@H](C)[C@H](NC(=O)[C@@H](NC(=O)[C@H](CSC(=O)OCc1ccccc1)NC(=O)OCc1ccccc1)C(C)C)C(=O)N[C@@H](CCSC)C(=O)OC	90	inactive

The remaining molecules from weak to strong by IC50 [1], led by results:

IC50 [1] [µM]	inhibition [2]	Structure (SMILES)
100	inactive	COC(=O)[C@H](CCSC)NC(=O)c1cccc(CNC(=O)[C@H](CS)NC(C)=O)c1
0.34	–	CC[C@H](C)[C@H](NC(=O)[C@@H](NC(=O)[C@@H](N)CS)C(C)C)C(=O)N[C@@H](CCSC)C(=O)O
